Source: patent US5849729A, “Use of hydrolyzed cocoa butter for percutaneous absorption” (Hershey Foods Corporation, priority 1995, dated 1998)
“And” between values parts separate entries of the source, which are not always exact repeats. Equal entries are not always repeated. “Also recorded” adds a separate entry of the source. Where two headings read alike, the source gives them in different places.

Tests used:
[1] = cited from earlier work
[2] = In-vitro percutaneous absorption of retinoic acid and triamcinolone acetonide from two cocoa butter vehicles (Franz cells, 48 h); details: for Penet (Total Penetration) / % Abs (% Absorbed) / Total Penetration / % Absorbed / total absorption: 48 h; for % Abs (% Absorbed) / % Absorbed / total absorption: percent of applied dose
Excerpt: The objective of this study was to measure the permeation of retinoic acid and triamcinolone acetonide through human skin in-vitro from two cocoa butter vehicles.
Two cocoa butter vehicles supplied by Hershey Foods Corporation were utilized: (1) pure cocoa butter and (2) partially hydrolyzed cocoa butter emulsion. Radioactive [11,12-^3 H] [retinoic acid (NET 920, Lot 2930-067, specific activity 1 mCi/ml) and [6,7-^3 H]-triamcinolone acetonide (NET 470, Lot 2904-170, specific activity 1 mCi/ml) were obtained from Dupont-New England Nuclear Corporation, Boston, Mass.
Each of the two cocoa butter vehicles was spiked separately with ^3 H-retinoic acid and ^3 H-Triamcinolone acetonide to give a total of four radioactive formulations for study. This was done by adding 25 μl (containing 25 μCi) of each tracer solution to approximately 1 gram of each vehicle and mixing with the tip of the dispensing micropipette. The pure cocoa butter vehicle was liquified by holding it under warm tap water prior to spiking. This was not done with the partially hydrolyzed cocoa butter emulsion. Neither formulation was used for three days after spiking to allow for diffusional mixing to take place. Final radioactive concentrations of each formulation were: […]
Human trunk skin without obvious signs of disease was used throughout. It was obtained within 24 hours of death, dermatomed to a thickness of approximately 0.25 mm, cryopreserved and sealed in water vapor-impermeableplastic bags. It was stored at -70° C. until the day of use then thawed by placing the bag in 37° C. water.
Skin from a single donor was cut into multiple sections large enough to fit on 0.8 cm^2 Franz cells. The dermal chamber was filled with isotonic saline, pH 7.4, into which a small magnetic stirring bar was placed. The epidermal chamber was left open to the ambient laboratory environment, approximately 22° C. and 40-60% RH. The cells were placed in a diffusion apparatus in which the dermal receptor solution was stirred magnetically at 600 RPM and its temperature maintained at 37° C.
To assure the integrity of each skin section, its permeability to tritiated water was determined before application of the test formulations. Following a brief (0.5-1 hour) equilibration period, 150 μl ^3 H2 O (specific activity 0.3 μCi/ml) was layered across the top of the skin section so that the entire exposed surface was covered. After 5 minutes the aqueous layer was removed and the surface of the skin carefully blotted dry. At t=0.5 hour the saline receptor phase was removed and analyzed for radioactive content by liquid scintillation counting. Skin specimens in which absorption of ^3 H2 O was less than 1.25 μl were considered acceptable.
Subsequently, each test formulation was applied at a target dose of 10 mg (cream) or 10 μl (butter). The cream formulation (partially hydrolyzed cocoa butter emulsion) was applied from the smooth, rounded-tip of a glass rod, the exact amount determined by weighing the rod before and after application. The butter formulation (pure cocoa butter) was first liquified under warm tap water, allowed to cool to room temperature, then applied with a 10 μl positive displacement micropipette prior to resolidifying. At 4, 8, 12, 24, 36 and 48 hours the receptor solution was removed in its entirety, replaced with fresh solution, and a 1 ml aliquot taken and assayed for radioactive content by liquid scintillation counting.
A 1 ml aliquot of each receptor sample containing ^3 H2 O, ^3 H-retinoic acid, or ^3 H-triamcinolone acetonide was placed in a 7 ml glass scintillation vial and gelled by the addition of 5 ml Opti-Fluor (Packard Instrument Co., Meriden, Conn.). These were counted in a Packard Tri-Carb Model 1900CA Liquid scintillation Analyzer equipped with internal standard and automatic quench correction.

[3] = butter (pure cocoa butter), individual skin sections, listed as TRIAMINOLONE ACETONIDE
[4] = butter, average of three donors
[5] = cream (partially hydrolyzed cocoa butter emulsion), individual skin sections, listed as TRIAMINOLONE ACETONIDE

SMILES: CN(C)C=O [Dimethylformamide]
- side effects ([1]; topical use, in words): a sensation of burning and erythema on the skin

SMILES: C[S+](C)[O-] [dimethyl sulfoxide]
- side effects ([1]; topical use, in words): a foul taste and body odor, burning and erythema on the skin; a reduction in the relucency of the lens cortex and tissue necrosis

SMILES: CNC(C)=O [methylacetamide]
- side effects ([1]; in vivo): a sensation of burning and erythema on the skin

SMILES: CC1(C)O[C@@H]2C[C@H]3[C@@H]4CCC5=CC(=O)C=C[C@]5(C)[C@@]4(F)[C@@H](O)C[C@]3(C)[C@]2(C(=O)CO)O1 [triamcinolone acetonide]
- rate of absorption profile / flux ([2]; both cocoa butter formulations, in words): absorption continues to increase at a slow rate; also recorded: relatively high flux rates
- Penet (Total Penetration) [2, 3]: 524.71 and 252.43 and 268.51 and 390.54 and 1505.05 and 2037.47 and 2111.25 and 1993.70 and 1506.22 and 770.57 and 821.16 and 931.82
- % Abs (% Absorbed) [2, 3]: 5.24% and 2.52% and 2.86% and 3.90% and 15.04% and 20.36% and 21.10% and 19.92% and 15.05% and 7.70% and 8.21% and 9.31%
- Rate of absorption, R1 ([2]; butter (pure cocoa butter), sample R1, mid-t 2 h, individual skin sections, listed as TRIAMINOLONE ACETONIDE): 4.39 ng/cm^2 /hr and 1.60 ng/cm^2 /hr and 4.85 ng/cm^2 /hr and 2.94 ng/cm^2 /hr and 5.03 ng/cm^2 /hr and 5.86 ng/cm^2 /hr and 13.93 ng/cm^2 /hr and 14.30 ng/cm^2 /hr and 10.13 ng/cm^2 /hr and 6.97 ng/cm^2 /hr and 3.85 ng/cm^2 /hr and 4.31 ng/cm^2 /hr
- Rate of absorption, R3 ([2]; butter (pure cocoa butter), sample R3, mid-t 10 h, individual skin sections, listed as TRIAMINOLONE ACETONIDE): 4.10 ng/cm^2 /hr and 1.98 ng/cm^2 /hr and 3.21 ng/cm^2 /hr and 1.85 ng/cm^2 /hr and 39.10 ng/cm^2 /hr and 54.60 ng/cm^2 /hr and 49.52 ng/cm^2 /hr and 41.58 ng/cm^2 /hr and 31.25 ng/cm^2 /hr and 11.42 ng/cm^2 /hr and 13.09 ng/cm^2 /hr and 17.61 ng/cm^2 /hr
- Rate of absorption, R4 ([2]; butter (pure cocoa butter), sample R4, mid-t 18 h, individual skin sections, listed as TRIAMINOLONE ACETONIDE): 10.64 ng/cm^2 /hr and 4.64 ng/cm^2 /hr and 5.65 ng/cm^2 /hr and 6.96 ng/cm^2 /hr and 41.81 ng/cm^2 /hr and 61.91 ng/cm^2 /hr and 60.58 ng/cm^2 /hr and 63.34 ng/cm^2 /hr and 42.50 ng/cm^2 /hr and 16.59 ng/cm^2 /hr and 19.25 ng/cm^2 /hr and 21.60 ng/cm^2 /hr
- Rate of absorption, R5 ([2]; butter (pure cocoa butter), sample R5, mid-t 30 h, individual skin sections, listed as TRIAMINOLONE ACETONIDE): 16.77 ng/cm^2 /hr and 7.47 ng/cm^2 /hr and 7.89 ng/cm^2 /hr and 11.61 ng/cm^2 /hr and 44.77 ng/cm^2 /hr and 55.96 ng/cm^2 /hr and 68.48 ng/cm^2 /hr and 56.67 ng/cm^2 /hr and 44.03 ng/cm^2 /hr and 24.96 ng/cm^2 /hr and 28.20 ng/cm^2 /hr and 30.50 ng/cm^2 /hr
- Rate of absorption, R6 ([2]; butter (pure cocoa butter), sample R6, mid-t 42 h, individual skin sections, listed as TRIAMINOLONE ACETONIDE): 23.72 ng/cm^2 /hr and 12.43 ng/cm^2 /hr and 12.16 ng/cm^2 /hr and 19.97 ng/cm^2 /hr and 48.08 ng/cm^2 /hr and 65.20 ng/cm^2 /hr and 60.71 ng/cm^2 /hr and 62.32 ng/cm^2 /hr and 49.91 ng/cm^2 /hr and 30.50 ng/cm^2 /hr and 30.09 ng/cm^2 /hr and 34.64 ng/cm^2 /hr
- Total Penetration [2, 4]: 1094.29
- Rate of absorption, R1 ([2]; butter, R1, mid-t 2 h, average of three donors): 6.52 ng/cm^2 /hr
- Rate of absorption, R3 ([2]; butter, R3, mid-t 10 h, average of three donors): 22.44 ng/cm^2 /hr
- Rate of absorption, R4 ([2]; butter, R4, mid-t 18 h, average of three donors): 29.62 ng/cm^2 /hr
- Rate of absorption, R5 ([2]; butter, R5, mid-t 30 h, average of three donors): 33.11 ng/cm^2 /hr
- Rate of absorption, R6 ([2]; butter, R6, mid-t 42 h, average of three donors): 37.48 ng/cm^2 /hr
- % Absorbed / total absorption [2, 4]: 10.9%
- % Absorbed / total absorption ([2]; butter, average of three donors, listed as Triamcinalone): 10.93%
- rate of absorption, cream versus butter ([2]; comparison of both formulations, in words): The cream formulation gives a slightly higher rate of absorption than the butter
- Penet (Total Penetration) [2, 5]: 254.48 and 668.59 and 249.45 and 118.36 and 2508.36 and 2312.05 and 2871.31 and 2499.51 and 947.51 and 935.57 and 1068.65 and 1271.22
- % Abs (% Absorbed) [2, 5]: 2.49% and 6.22% and 2.57% and 1.23% and 19.85% and 17.85% and 23.91% and 21.77% and 9.37% and 8.49% and 9.22% and 13.72%
- Rate of absorption, R1 ([2]; cream (partially hydrolyzed cocoa butter emulsion), sample R1, mid-t 2 h, individual skin sections, listed as TRIAMINOLONE ACETONIDE): 3.04 ng/cm^2 /hr and 1.67 ng/cm^2 /hr and 5.26 ng/cm^2 /hr and 1.52 ng/cm^2 /hr and 18.29 ng/cm^2 /hr and 17.50 ng/cm^2 /hr and 18.71 ng/cm^2 /hr and 12.90 ng/cm^2 /hr and 4.30 ng/cm^2 /hr and 2.33 ng/cm^2 /hr and 15.97 ng/cm^2 /hr and 3.83 ng/cm^2 /hr
- Rate of absorption, R3 ([2]; cream (partially hydrolyzed cocoa butter emulsion), sample R3, mid-t 10 h, individual skin sections, listed as TRIAMINOLONE ACETONIDE): 3.36 ng/cm^2 /hr and 3.23 ng/cm^2 /hr and 5.64 ng/cm^2 /hr and 0.96 ng/cm^2 /hr and 59.17 ng/cm^2 /hr and 56.60 ng/cm^2 /hr and 68.40 ng/cm^2 /hr and 55.15 ng/cm^2 /hr and 21.00 ng/cm^2 /hr and 18.75 ng/cm^2 /hr and 20.37 ng/cm^2 /hr and 22.71 ng/cm^2 /hr
- Rate of absorption, R4 ([2]; cream (partially hydrolyzed cocoa butter emulsion), sample R4, mid-t 18 h, individual skin sections, listed as TRIAMINOLONE ACETONIDE): 5.74 ng/cm^2 /hr and 12.44 ng/cm^2 /hr and 6.13 ng/cm^2 /hr and 2.07 ng/cm^2 /hr and 63.18 ng/cm^2 /hr and 60.43 ng/cm^2 /hr and 79.96 ng/cm^2 /hr and 72.84 ng/cm^2 /hr and 26.40 ng/cm^2 /hr and 25.54 ng/cm^2 /hr and 27.04 ng/cm^2 /hr and 31.56 ng/cm^2 /hr
- Rate of absorption, R5 ([2]; cream (partially hydrolyzed cocoa butter emulsion), sample R5, mid-t 30 h, individual skin sections, listed as TRIAMINOLONE ACETONIDE): 7.24 ng/cm^2 /hr and 17.67 ng/cm^2 /hr and 6.59 ng/cm^2 /hr and 3.75 ng/cm^2 /hr and 73.13 ng/cm^2 /hr and 69.96 ng/cm^2 /hr and 81.15 ng/cm^2 /hr and 70.51 ng/cm^2 /hr and 30.37 ng/cm^2 /hr and 30.85 ng/cm^2 /hr and 35.59 ng/cm^2 /hr and 41.22 ng/cm^2 /hr
- Rate of absorption, R6 ([2]; cream (partially hydrolyzed cocoa butter emulsion), sample R6, mid-t 42 h, individual skin sections, listed as TRIAMINOLONE ACETONIDE): 10.49 ng/cm^2 /hr and 37.33 ng/cm^2 /hr and 7.93 ng/cm^2 /hr and 5.35 ng/cm^2 /hr and 83.06 ng/cm^2 /hr and 70.37 ng/cm^2 /hr and 91.88 ng/cm^2 /hr and 81.89 ng/cm^2 /hr and 28.80 ng/cm^2 /hr and 30.03 ng/cm^2 /hr and 32.01 ng/cm^2 /hr and 46.16 ng/cm^2 /hr
- Total Penetration ([2]; cream, average of three donors): 1308.76
- % Absorbed / total absorption ([2]; cream, average of three donors): 11.4%
- % Absorbed / total absorption ([2]; cream, average of three donors, listed as Triamcinalone): 11.39%
- difference between partially hydrolyzed cocoa butter emulsion and pure cocoa butter as delivery vehicle ([2]; in words): no appreciable difference
- average absorption ([2]; with cocoa butter and partially hydrolyzed cocoa butter emulsion (both vehicles)): about 11%
